This passage reports MIC, Activity and UI results from ChEMBL document CHEMBL3044568, “Synthesis, analgesic, anti-inflammatory, and in vitro antimicrobial activities of some novel quinazolin-4(3H)-one derivatives” (Med Chem Res, 2013).

One series concerns Aspergillus fumigatus. Put plainly: Antifungal activity against Aspergillus fumigatus ATCC 46645 assessed as growth inhibition after 48 hr by agar streak dilution method. The series is classed as functional. The settings on record: ATCC 46645, 48 h.
The subject of the next series is Aspergillus niger. Put plainly: Antifungal activity against Aspergillus niger ATCC 9029 assessed as growth inhibition after 48 hr by agar streak dilution method. The series is classed as functional. The settings on record: ATCC 9029, 48 h.
The next series concerns Klebsiella pneumoniae. Kind of series: Antibacterial activity against Klebsiella pneumoniae ATCC 11298 assessed as growth inhibition after 24 hr by agar streak dilution method. It counts as functional. The settings on record: ATCC 11298, 24 h.
A further series deals with Pseudomonas aeruginosa. Put plainly: Antibacterial activity against Pseudomonas aeruginosa […] assessed as growth inhibition after 24 hr by agar streak dilution method. It counts as functional.
For series [1], the system named is Rattus norvegicus. Kind of series: Anti-inflammatory activity in Rattus norvegicus Wistar (rat) assessed as protection against carrageenan-induced paw edema at 20 mg/kg, po measured at 1 hr by plethysmographic analysis (reference value: 6 +/- 0.63%). It counts as functional.
For series [2], the system named is Rattus norvegicus. Kind of series: Anti-inflammatory activity in Rattus norvegicus Wistar (rat) assessed as protection against carrageenan-induced paw edema at 10 mg/kg, po measured at 1 hr by plethysmographic analysis (reference value: 6 +/- 0.63%). The series is classed as functional. A general note: The carrageenan paw model is a standard test of acute inflammation.

Series [3] relates to Rattus norvegicus. Put plainly: Anti-inflammatory activity in Rattus norvegicus Wistar (rat) assessed as protection against carrageenan-induced paw edema at 20 mg/kg, po measured at 30 min by plethysmographic analysis (reference value: 4 +/- 0.28%). The series is classed as functional.
The subject of series [4] is Rattus norvegicus. Put plainly: Anti-inflammatory activity in Rattus norvegicus Wistar (rat) assessed as protection against carrageenan-induced paw edema at 10 mg/kg, po measured at 30 min by plethysmographic analysis (reference value: 4 +/- 0.28%). The series is classed as functional.
Another series deals with Escherichia coli. Kind of series: Antibacterial activity against Escherichia coli ATCC 25922 assessed as growth inhibition after 24 hr by agar streak dilution method. It counts as functional. The settings on record: ATCC 25922, 24 h.
The next series deals with Bacillus cereus. Put plainly: Antibacterial activity against Bacillus cereus ATCC 11778 assessed as growth inhibition after 24 hr by agar streak dilution method. The series is classed as functional. Particulars: ATCC 11778, 24 h.
The next series relates to Micrococcus luteus. Put plainly: Antibacterial activity against Micrococcus luteus ATCC 4698 assessed as growth inhibition after 24 hr by agar streak dilution method. The series is classed as functional. Particulars: ATCC 4698, 24 h.
The subject of series [5] is Staphylococcus epidermidis. Kind of series: Antibacterial activity against Staphylococcus epidermidis ATCC 155 assessed as growth inhibition after 24 hr by agar streak dilution method. Particulars: ATCC 155, 24 h. It counts as functional.
The subject of a further series is Staphylococcus aureus. Put plainly: Antibacterial activity against Staphylococcus aureus ATCC 9144 assessed as growth inhibition after 24 hr by agar streak dilution method. The series is classed as functional. Particulars: ATCC 9144, 24 h.
Series [6] deals with Rattus norvegicus. Put plainly: Ulcerogenecity in Rattus norvegicus Wistar albino (rat) stomach assessed as ulcer index administered 20 mg/kg, ip qd for 3 days measured on day 4 relative to aspirin. It counts as ADME, organism-based. The arrangement: dose 20 mg/kg, route intraperitoneal. The settings on record: in vivo, 72 h.
In series [7] the test system is Rattus norvegicus. Put plainly: Ulcerogenecity in Rattus norvegicus Wistar albino (rat) stomach assessed as ulcer index administered 20 mg/kg, ip qd for 3 days measured on day 4 relative to diclofenac. The series is classed as ADME, organism-based. The arrangement: dose 20 mg/kg, route intraperitoneal. Particulars: in vivo, 72 h.
Series [8] concerns Rattus norvegicus. Kind of series: Ulcerogenecity in Rattus norvegicus Wistar albino (rat) stomach assessed as ulcer index administered 20 mg/kg, ip qd for 3 days measured on day 4 (reference value: 0.13 +/- 0.05 no unit). It counts as ADME, organism-based. Also noted: dose 20 mg/kg, route intraperitoneal. The settings on record: in vivo, 72 h.
Series [9] has as its system Rattus norvegicus. Kind of series: Anti-inflammatory activity in Rattus norvegicus Wistar (rat) assessed as protection against carrageenan-induced paw edema at 20 mg/kg, po measured at 3 hr by plethysmographic analysis (reference value: 4 +/- 0.75%). The series is classed as functional.
The test system of series [10] is Rattus norvegicus. Kind of series: Anti-inflammatory activity in Rattus norvegicus Wistar (rat) assessed as protection against carrageenan-induced paw edema at 10 mg/kg, po measured at 3 hr by plethysmographic analysis (reference value: 4 +/- 0.75%). The series is classed as functional.
The subject of series [11] is Rattus norvegicus. Kind of series: Anti-inflammatory activity in Rattus norvegicus Wistar (rat) assessed as protection against carrageenan-induced paw edema at 20 mg/kg, po measured at 2 hr by plethysmographic analysis (reference value: 5 +/- 0.41%). It counts as functional.
The test system of series [12] is Rattus norvegicus. Kind of series: Anti-inflammatory activity in Rattus norvegicus Wistar (rat) assessed as protection against carrageenan-induced paw edema at 10 mg/kg, po measured at 2 hr by plethysmographic analysis (reference value: 5 +/- 0.41%). The series is classed as functional.
For series [13], the system named is Mus musculus. Kind of series: Analgesic activity in Mus musculus […] albino (mouse) at 20 mg/kg, po measured at 3 hr by tail flick test (reference value: 3 +/- 0.41%). Background: Thermal pain tests record how soon the animal reacts.
For series [14], the system named is Mus musculus. Kind of series: Analgesic activity in Mus musculus […] albino (mouse) at 10 mg/kg, po measured at 3 hr by tail flick test (reference value: 3 +/- 0.41%).
Series [15] relates to Mus musculus. Kind of series: Analgesic activity in Mus musculus […] albino (mouse) at 20 mg/kg, po measured at 2 hr by tail flick test (reference value: 6 +/- 0.84%).
Series [16] deals with Mus musculus. Kind of series: Analgesic activity in Mus musculus […] albino (mouse) at 10 mg/kg, po measured at 2 hr by tail flick test (reference value: 6 +/- 0.84%).
Series [17] has as its system Mus musculus. Put plainly: Analgesic activity in Mus musculus […] albino (mouse) at 10 mg/kg, po measured at 1 hr by tail flick test (reference value: 5 +/- 0.49%).
The test system of series [18] is Mus musculus. Kind of series: Analgesic activity in Mus musculus […] albino (mouse) at 20 mg/kg, po measured at 1 hr by tail flick test (reference value: 5 +/- 0.49%).
Series [19] deals with Mus musculus. Put plainly: Analgesic activity in Mus musculus […] albino (mouse) at 20 mg/kg, po measured at 30 min by tail flick test (reference value: 4 +/- 0.72%).
The subject of series [20] is Mus musculus. Kind of series: Analgesic activity in Mus musculus […] albino (mouse) at 10 mg/kg, po measured at 30 min by tail flick test (reference value: 4 +/- 0.72%).
For series [21], the system named is Rattus norvegicus. Put plainly: Ulcerogenecity in Rattus norvegicus Wistar albino (rat) stomach assessed as ulcer index administered 200 mg/kg, ip qd for 3 days measured on day 4 (reference value: 0.13 +/- 0.05 no unit). It counts as ADME, organism-based. The arrangement: dose 200 mg/kg, route intraperitoneal. Particulars: in vivo, 72 h.

≈ marks a conversion by molar mass, not a printed value.

What is called MIC is the least concentration at which growth counts as inhibited.

With `Cc1nc2ccccc2c(=O)n1-c1ccc(NC(=O)CN/N=C/c2ccccc2)cc1`, the MIC with Aspergillus fumigatus was 31.2 µg/mL (≈ 75.9 µM); in the series with Aspergillus niger, 31.2 µg/mL (≈ 75.9 µM); with Klebsiella pneumoniae, 15.6 µg/mL (≈ 38 µM); in the series on Pseudomonas aeruginosa, 31.2 µg/mL (≈ 75.9 µM); with Escherichia coli it was 62.5 µg/mL (≈ 152 µM); in the series on Bacillus cereus, 31.2 µg/mL (≈ 75.9 µM). Further, the MIC in the series with Micrococcus luteus was found to be 62.5 µg/mL (≈ 152 µM); in [5], 31.2 µg/mL (≈ 75.9 µM); with Staphylococcus aureus it was 31.2 µg/mL (≈ 75.9 µM). Further, the Activity in the series with Rattus norvegicus [1] is listed as 46%; in the series on Rattus norvegicus [2] it was 29%; in the series with Rattus norvegicus [3], 35%; in the series with Rattus norvegicus [4] it was 24%; in the series on Rattus norvegicus [9], 32%; in the series with Rattus norvegicus [10] it was 28%. In addition, the Activity turned out to be 51% with Rattus norvegicus [11]; 34% with Rattus norvegicus [12]; 32% with Mus musculus [13]; 29% in the series on Mus musculus [14]; 57% in the series with Mus musculus [15]; 41% with Mus musculus [16]. Further, the Activity in the series on Mus musculus [17] is recorded as 35%; in the series with Mus musculus [18] it was 50%; in the series on Mus musculus [19], 42%; in the series with Mus musculus [20] it was 30%. In addition, the UI in the series with Rattus norvegicus [6] amounted to 31%; in the series on Rattus norvegicus [7], 34%; with Rattus norvegicus [8] it was 0.7 no unit.

As for `CC(=O)Oc1ccccc1C(=O)O` [ASPIRIN], the UI in the series on Rattus norvegicus [21] came to 1.79%.
